Measured values: PubChem BioAssay AID248 (DTP/NCI, 2004)
Several values for one entry are separate records, joined by “and”; a condition that tells them apart may be missing. Identical values can stand only once. Inconclusive results and toxic doses are left out. Cut-off read from the data, not from the text of the source: active = T/C of 150% or more; inactive = T/C below 125%.

System: L1210 leukemia ip in BDF1 mice, survival T/C
Experiment: NCI In Vivo Anticancer Drug Screen. Data for tumor model L1210 Leukemia (intraperitoneal) in B6D2F1 (BDF1) mice
Details: endpoint: mean survival time, higher = longer survival
Summary of the method: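 Antitumor effect is assessed in tumor-bearing animals. Survival in the compound arm is compared with a vehicle-dosed control arm and expressed as their quotient.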

[1] = dose: 50.0 mg/kg/injection, schedule: Q01DX009 (ip), vehicle: Klucel (hydroxypropylcellulose) (HPC)
[2] = dose: 100.0 mg/kg/injection, schedule: Q01DX009 (ip), vehicle: Klucel (hydroxypropylcellulose) (HPC)
[3] = dose: 200.0 mg/kg/injection, schedule: Q01DX009 (ip), vehicle: Klucel (hydroxypropylcellulose) (HPC)
[4] = dose: 12.5 mg/kg/injection, schedule: Q01DX009 (ip), vehicle: saline
[5] = dose: 100.0 mg/kg/injection, schedule: Q01DX001 (ip), vehicle: Klucel (hydroxypropylcellulose) (HPC)
[6] = dose: 25.0 mg/kg/injection, schedule: Q01DX009 (ip), vehicle: Klucel (hydroxypropylcellulose) (HPC)
[7] = dose: 100.0 mg/kg/injection, schedule: Q04DX003 (ip), vehicle: Klucel (hydroxypropylcellulose) (HPC)
[8] = dose: 200.0 mg/kg/injection, schedule: Q04DX003 (ip), vehicle: Klucel (hydroxypropylcellulose) (HPC)
[9] = dose: 400.0 mg/kg/injection, schedule: Q01DX009 (ip), vehicle: Klucel (hydroxypropylcellulose) (HPC)
[10] = dose: 400.0 mg/kg/injection, schedule: Q04DX003 (ip), vehicle: Klucel (hydroxypropylcellulose) (HPC)
[11] = dose: 100.0 mg/kg/injection, schedule: Q04DX002 (ip), vehicle: saline with Tween-80
[12] = dose: 200.0 mg/kg/injection, schedule: Q04DX002 (ip), vehicle: saline with Tween-80
[13] = dose: 100.0 mg/kg/injection, schedule: Q01DX001 (ip), vehicle: carboxymethylcellulose (CMC)
[14] = dose: 200.0 mg/kg/injection, schedule: Q01DX001 (ip), vehicle: carboxymethylcellulose (CMC)
[15] = dose: 400.0 mg/kg/injection, schedule: Q01DX001 (ip), vehicle: carboxymethylcellulose (CMC)

Measured: T/C

O=[N+]([O-])c1ccc(-c2cc3ccccc3nc2Cl)cc1
inactive: dose: 100.0 mg/kg/injection, schedule: Q01DX001 (ip), vehicle: saline 92 % of control | dose: 200.0 mg/kg/injection, schedule: Q01DX001 (ip), vehicle: saline 90 % of control | dose: 400.0 mg/kg/injection, schedule: Q01DX001 (ip), vehicle: saline 101 % of control

COc1cc(O)c2ccccc2c1OC(C)=O
inactive: [1] 101 % of control | [2] 90 % of control | [3] 93 % of control

CCCCOC(=N)N(CCCC)CC(C)(C)[N+](=O)[O-]
inactive: dose: 44.0 mg/kg/injection, schedule: Q01DX Z (ip), vehicle: methylcellulose (MC) 98 % of control | dose: 100.0 mg/kg/injection, schedule: Q01DX Z (ip), vehicle: methylcellulose (MC) 98 % of control

COC(=O)C1C(=O)CCC2CN3CCc4c([nH]c5ccccc45)C3CC21 (centres undefined)
inactive: dose: 12.5 mg/kg/injection, schedule: Q04DX002 (ip), vehicle: saline with Tween-80 94 % of control | dose: 25.0 mg/kg/injection, schedule: Q04DX002 (ip), vehicle: saline with Tween-80 100 % of control | dose: 50.0 mg/kg/injection, schedule: Q04DX002 (ip), vehicle: saline with Tween-80 90 % of control

CC(C)(C)C1SCC(=NNc2ccc([N+](=O)[O-])cc2[N+](=O)[O-])CS1 (centres undefined)
inactive: dose: 12.5 mg/kg/injection, schedule: Q04DX002 (ip), vehicle: gum acacia 95 % of control | dose: 25.0 mg/kg/injection, schedule: Q04DX002 (ip), vehicle: gum acacia 98 % of control | dose: 50.0 mg/kg/injection, schedule: Q04DX002 (ip), vehicle: gum acacia 95 % of control

CCCC[As](=O)(O)CC(C)C
inactive: dose: 6.25 mg/kg/injection, schedule: Q01DX009 (ip), vehicle: saline 93 % of control | [4] 101 % of control

O=Cc1c[nH]c2nccnc12
inactive: dose: 100.0 mg/kg/injection, schedule: Q01DX009 (ip), vehicle: saline 94 % of control | dose: 100.0 mg/kg/injection, schedule: Q04DX003 (ip), vehicle: saline 96 % of control | dose: 200.0 mg/kg/injection, schedule: Q01DX009 (ip), vehicle: saline 97 % of control | dose: 200.0 mg/kg/injection, schedule: Q04DX003 (ip), vehicle: saline 93 % of control | dose: 400.0 mg/kg/injection, schedule: Q01DX009 (ip), vehicle: saline 100 % of control | dose: 400.0 mg/kg/injection, schedule: Q04DX003 (ip), vehicle: saline 93 % of control

O=c1cc(NCc2ccccc2)[nH]c(=O)[nH]1
inactive: dose: 50.0 mg/kg/injection, schedule: Q01DX001 (ip), vehicle: Klucel (hydroxypropylcellulose) (HPC) 91 % of control | [5] 97 % of control

C/C=C/C(C#N)Nc1ccccc1C(N)=O (centres undefined)
inactive: dose: 12.5 mg/kg/injection, schedule: Q04DX003 (ip), vehicle: Klucel (hydroxypropylcellulose) (HPC) 91 % of control | [6] 104 % of control | dose: 25.0 mg/kg/injection, schedule: Q04DX003 (ip), vehicle: Klucel (hydroxypropylcellulose) (HPC) 96 % of control | [1] 103 % of control | dose: 50.0 mg/kg/injection, schedule: Q04DX003 (ip), vehicle: Klucel (hydroxypropylcellulose) (HPC) 102 % of control | [2] 95 % of control | [7] 94 % of control

O=c1c2ccccc2n2nnc3cccc1c32
inactive: [5] 97 % of control and 88 % of control | [7] 91 % of control | dose: 200.0 mg/kg/injection, schedule: Q01DX001 (ip), vehicle: Klucel (hydroxypropylcellulose) (HPC) 87 % of control | [8] 95 % of control | dose: 400.0 mg/kg/injection, schedule: Q01DX001 (ip), vehicle: Klucel (hydroxypropylcellulose) (HPC) 92 % of control

O=c1cc(-c2ccccc2)cc(-c2ccccc2)o1
inactive: [2] 102 % of control | [7] 96 % of control | [3] 96 % of control | [8] 100 % of control | [9] 96 % of control | [10] 94 % of control

O=C(O)c1ccccc1C1C=CCCC1 (centres undefined)
inactive: [11] 101 % of control | [12] 101 % of control | dose: 400.0 mg/kg/injection, schedule: Q04DX002 (ip), vehicle: saline with Tween-80 104 % of control

CCn1cc(C(=O)O)c(=O)c2ccc3ccccc3c21
inactive: dose: 100.0 mg/kg/injection, schedule: Q04DX002 (ip), vehicle: Klucel (hydroxypropylcellulose) (HPC) 100 % of control | dose: 200.0 mg/kg/injection, schedule: Q04DX002 (ip), vehicle: Klucel (hydroxypropylcellulose) (HPC) 103 % of control | dose: 400.0 mg/kg/injection, schedule: Q04DX002 (ip), vehicle: Klucel (hydroxypropylcellulose) (HPC) 100 % of control

CC(C)(C)SCC#CCSC(C)(C)C
inactive: dose: 50.0 mg/kg/injection, schedule: Q01DX009 (ip), vehicle: saline with Tween-80 100 % of control | dose: 100.0 mg/kg/injection, schedule: Q01DX009 (ip), vehicle: saline with Tween-80 118 % of control | [11] 103 % of control | dose: 200.0 mg/kg/injection, schedule: Q01DX009 (ip), vehicle: saline with Tween-80 96 % of control | [12] 100 % of control

Cc1ccnc(SCC(=O)O)n1
inactive: [2] 108 % of control | [7] 96 % of control | [3] 95 % of control | [8] 96 % of control | [9] 90 % of control | [10] 95 % of control

Cc1cc(N(CCCl)CCCl)ccc1C=Nc1cccc(Cl)c1
inactive: dose: 50.0 mg/kg/injection, schedule: Q01DX001 (ip), vehicle: carboxymethylcellulose (CMC) 100 % of control | [13] 107 % of control | [14] 100 % of control | [15] 94 % of control

COc1ccc2c(c1)c1c(C)c3cnccc3c(C)c1n2CCCN
inactive: dose: 0.5 mg/kg/injection, schedule: Q01DX009 (ip), vehicle: saline 96 % of control | dose: 1.0 mg/kg/injection, schedule: Q01DX009 (ip), vehicle: saline 102 % of control | dose: 3.0 mg/kg/injection, schedule: Q01DX009 (ip), vehicle: saline 104 % of control | dose: 3.0 mg/kg/injection, schedule: Q04DX003 (ip), vehicle: saline 104 % of control | dose: 6.0 mg/kg/injection, schedule: Q01DX009 (ip), vehicle: saline 112 % of control | dose: 6.0 mg/kg/injection, schedule: Q04DX003 (ip), vehicle: saline 104 % of control | dose: 12.0 mg/kg/injection, schedule: Q01DX009 (ip), vehicle: saline 106 % of control | dose: 12.0 mg/kg/injection, schedule: Q04DX003 (ip), vehicle: saline 107 % of control

CCOC(=O)/C(C#N)=C/c1cccn1Cc1ccc2c(c1)OCO2
inactive: dose: 25.0 mg/kg/injection, schedule: Q04DX002 (ip), vehicle: saline 101 % of control | dose: 50.0 mg/kg/injection, schedule: Q04DX002 (ip), vehicle: saline 105 % of control | dose: 100.0 mg/kg/injection, schedule: Q04DX002 (ip), vehicle: saline 105 % of control

CCCC[P+](c1ccccc1)(c1ccccc1)c1ccccc1
inactive: dose: 6.25 mg/kg/injection, schedule: Q04DX003 (ip), vehicle: saline 107 % of control | dose: 12.5 mg/kg/injection, schedule: Q01DX009 (ip), vehicle: Klucel (hydroxypropylcellulose) (HPC) 114 % of control | [4] 113 % of control | dose: 12.5 mg/kg/injection, schedule: Q04DX003 (ip), vehicle: saline 107 % of control | [6] 112 % of control | dose: 25.0 mg/kg/injection, schedule: Q01DX009 (ip), vehicle: saline 115 % of control | dose: 25.0 mg/kg/injection, schedule: Q04DX003 (ip), vehicle: saline 105 % of control | [1] 109 % of control | dose: 50.0 mg/kg/injection, schedule: Q04DX003 (ip), vehicle: saline 104 % of control

CCOC(=O)/C(C#N)=C1/C=C(N)CCC1
inactive: [13] 98 % of control | [14] 94 % of control | [15] 100 % of control

CN(C)CCC(O)Cc1ccccc1 (centres undefined)
inactive: dose: 100.0 mg/kg/injection, schedule: Q01DX009 (ip), vehicle: acetone 95 % of control | dose: 200.0 mg/kg/injection, schedule: Q01DX009 (ip), vehicle: acetone 101 % of control

Cc1cc(N(CCO)Cc2ccccc2)nc2ccccc12
inactive: dose: 75.0 mg/kg/injection, schedule: Q01DX001 (ip), vehicle: saline 102 % of control
